Legend:
h5-HT4 = h5-HT4 (Homo sapiens, UniProt Q13639); test: 5-HT4R intrinsic activity functional assay; settings: h5-HT4, functional assay at CEREP
5-HT4R [1] = target: 5-HT4R (Mus musculus, UniProt P97288); test: In vivo competition with [125I]1, ex vivo autoradiography of mouse brain
5-HT4R [2] = target: 5-HT4R (Rattus norvegicus, UniProt Q62758); test: In vitro autoradiographic competition with [125I]1 on rat brain sections; format: binding
[3] = SPECT tracer ref 19; cited from earlier work

Sequence of h5-HT4 (Q13639 whole entry): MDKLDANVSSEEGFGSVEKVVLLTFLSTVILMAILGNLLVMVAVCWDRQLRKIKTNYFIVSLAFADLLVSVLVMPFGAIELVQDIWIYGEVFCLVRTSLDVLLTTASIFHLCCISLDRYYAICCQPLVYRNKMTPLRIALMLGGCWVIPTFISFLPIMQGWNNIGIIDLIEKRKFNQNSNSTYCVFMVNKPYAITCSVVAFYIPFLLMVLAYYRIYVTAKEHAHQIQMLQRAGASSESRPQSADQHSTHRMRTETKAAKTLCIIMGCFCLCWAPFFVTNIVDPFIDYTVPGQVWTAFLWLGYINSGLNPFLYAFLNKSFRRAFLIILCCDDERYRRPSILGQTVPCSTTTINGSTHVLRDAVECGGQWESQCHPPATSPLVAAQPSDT
Sequence of 5-HT4R (Mus musculus, UniProt P97288) (P97288 whole entry): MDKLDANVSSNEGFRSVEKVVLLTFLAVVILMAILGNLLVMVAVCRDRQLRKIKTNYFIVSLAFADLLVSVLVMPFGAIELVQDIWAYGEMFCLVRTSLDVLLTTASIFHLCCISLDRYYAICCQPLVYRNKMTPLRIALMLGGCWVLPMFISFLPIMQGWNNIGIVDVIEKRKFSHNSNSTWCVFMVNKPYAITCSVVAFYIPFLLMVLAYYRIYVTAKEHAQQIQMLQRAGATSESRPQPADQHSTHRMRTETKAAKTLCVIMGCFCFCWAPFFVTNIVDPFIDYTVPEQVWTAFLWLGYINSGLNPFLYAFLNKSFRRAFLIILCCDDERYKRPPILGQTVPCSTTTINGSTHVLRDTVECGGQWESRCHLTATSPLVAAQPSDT
Sequence of 5-HT4R (Rattus norvegicus, UniProt Q62758) (Q62758 whole entry): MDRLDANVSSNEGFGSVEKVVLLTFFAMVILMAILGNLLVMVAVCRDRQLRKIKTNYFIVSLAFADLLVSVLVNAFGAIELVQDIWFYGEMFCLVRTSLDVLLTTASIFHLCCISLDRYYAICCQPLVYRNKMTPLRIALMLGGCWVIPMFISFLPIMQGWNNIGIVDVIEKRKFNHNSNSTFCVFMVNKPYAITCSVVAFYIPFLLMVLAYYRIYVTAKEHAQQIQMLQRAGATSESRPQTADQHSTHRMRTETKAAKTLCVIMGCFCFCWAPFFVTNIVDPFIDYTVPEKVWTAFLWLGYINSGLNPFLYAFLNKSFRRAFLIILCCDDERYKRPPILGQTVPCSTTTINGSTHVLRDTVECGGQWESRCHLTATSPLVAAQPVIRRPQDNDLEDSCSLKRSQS

## Fc1cccc2c1nc(OCC1CCN(CCCc3ccc(I)cc3)CC1)c1cccnc12 [Compound 11d, 7-Fluoro-5-{1-[3-(4-iodophenyl)propyl]piperidin-4-yl}methyloxybenzo[h]-1,6-naphthyridine]
h5-HT4
  efficacy (intrinsic activity): full antagonists
5-HT4R [1]; i.v. 50 µg/kg
  blood brain barrier crossing: able to cross the blood brain barrier
5-HT4R [1]; i.v. co-injection of 50 µg/kg 11d, compared to [125I]1 alone
  specific binding of [125I]1 ex vivo: markedly reduced
5-HT4R [2]; 10 pM of 11d with 100 pM [125I]1, rat brain sections
  5-HT4R-specific [125I]1 radioactivity in autoradiograms: decrease in the 5-HT4R-specific radioactivity
5-HT4R [2]; 1 nM of 11d with 100 pM [125I]1, rat brain sections
  5-HT4R-specific [125I]1 radioactivity in autoradiograms: almost complete abolishment of the signal

## CCCN1CCC(COc2nc3c(I)cccc3c3ccccc23)CC1 [Compound 11a, 4-Iodo-6-(1-propylpiperidin-4-yl)methyloxyphenanthridine]
h5-HT4
  efficacy (intrinsic activity): full antagonists

## CCCN1CCC(COc2nc3c(F)cccc3c3ncccc23)CC1 [Compound 4v, 7-Fluoro-5-(1-propylpiperidin-4-yl)methyloxybenzo[h]-1,6-naphthyridine]
h5-HT4
  efficacy (intrinsic activity): full antagonists

## CCCCN1CCC(COC(=O)c2cc([123I])c(N)c3c2OCCO3)CC1 [[^123I]1, (1-butylpiperidin-4-yl)methyl-8-amino-7-iodo[^123I]-2,3-dihydrobenzo[b][1,4]dioxine-5-carboxylate]
[3]
  brain penetration: low brain penetration
  metabolism: rapid metabolism

## CCCN1CCC(COc2nc3c(I)cccc3c3ncccc23)CC1 [Compound 11b, 7-Iodo-5-(1-propylpiperidin-4-yl)methyloxybenzo[h]-1,6-naphthyridine]
h5-HT4
  efficacy (intrinsic activity): full antagonists

Source: article PMC3509320 (Journal of medicinal chemistry, 2012)
